Literature values in article PMC10486429, “Investigations Using Albumin Binders to Modify the Tissue Distribution Profile of Radiopharmaceuticals Exemplified with Folate Radioconjugates” (Cancers, 2023).
Where two headings read alike, the source gives them in different places.

Key:
[1] = parameters: method as in PMID 33063250; conditions: n-octanol/PBS pH 7.4; cited from earlier work
[2] = test system: KB tumor-bearing athymic nude mice; parameters: method as in earlier work; conditions: cited from earlier work
[3] = n-octanol/PBS pH 7.4; cited from earlier work

For `CN1c2c(nc(N)[nH]c2=O)NC[C@H]1CNc1ccc(C(=O)N[C@@H](CCC(=O)N[C@@H](CCCCNC(=O)CN2CCN(CC(=O)O)CCN(CC(=O)O)CCN(CC(=O)O)CC2)C(=O)N[C@@H](CCCCNC(=O)CCCc2ccc(I)cc2)C(=O)O)C(=O)O)cc1` [[^177Lu]Lu-6R-RedFol-1, metal not drawn], the “logD Values” [1] is given as −3.9 ± 0.2 ^4, the “Blood, accumulated activity” value ([2]; 1 h p.i.) is given as 23 ± 3 % IA/g and the “Bone, accumulated activity” value ([2]; 1 h p.i.) is given as 2.1 ± 0.3 % IA/g. The “Intestines, accumulated activity” value ([2]; 1 h p.i.) was 2.9 ± 0.3 % IA/g, the “Kidneys, accumulated activity” value ([2]; 1 h p.i.) was 8.4 ± 0.8 % IA/g and the “Liver, accumulated activity” value ([2]; 1 h p.i.) was 3.3 ± 0.3 % IA/g. The “Lung, accumulated activity” value ([2]; 1 h p.i.) was 10 ± 1 % IA/g, the “Muscle, accumulated activity” value ([2]; 1 h p.i.) was 1.6 ± 0.2 % IA/g and the “Salivary glands, accumulated activity” value ([2]; 1 h p.i.) was 5.0 ± 0.3 % IA/g. For the same compound, the “Spleen, accumulated activity” value ([2]; 1 h p.i.) was 2.6 ± 0.2 % IA/g, the “Stomach, accumulated activity” value ([2]; 1 h p.i.) was 1.9 ± 0.4 % IA/g and the Tumor-to-blood ratio ([2]; 1 h p.i.) was 0.46 ± 0.01. For the same compound, the Tumor-to-kidney ratio ([2]; 1 h p.i.) was 1.3 ± 0.1, the Tumor-to-liver ratio ([2]; 1 h p.i.) was 3.3 ± 0.2 and the “Blood, accumulated activity” value ([2]; 4 h p.i.) was 17 ± 1 % IA/g. For the same compound, the “Bone, accumulated activity” value ([2]; 4 h p.i.) was 1.9 ± 0.2 % IA/g, the “Intestines, accumulated activity” value ([2]; 4 h p.i.) was 2.6 ± 0.7 % IA/g and the “KB tumor, accumulated activity” value ([2]; 4 h p.i.) was 20 ± 2 % IA/g. The “Kidneys, accumulated activity” value ([2]; 4 h p.i.) was 12 ± 1 % IA/g, the “Liver, accumulated activity” value ([2]; 4 h p.i.) was 3.0 ± 0.2 % IA/g and the “Lung, accumulated activity” value ([2]; 4 h p.i.) was 7.9 ± 1.4 % IA/g. The “Muscle, accumulated activity” value ([2]; 4 h p.i.) was 1.4 ± 0.1 % IA/g, the “Salivary glands, accumulated activity” value ([2]; 4 h p.i.) was 5.7 ± 0.5 % IA/g and the “Spleen, accumulated activity” value ([2]; 4 h p.i.) was 2.2 ± 0.2 % IA/g. For the same compound, the “Stomach, accumulated activity” value ([2]; 4 h p.i.) was 1.9 ± 0.3 % IA/g, the Tumor-to-blood ratio ([2]; 4 h p.i.) was 1.2 ± 0.1 and the Tumor-to-kidney ratio ([2]; 4 h p.i.) was 1.7 ± 0.1. For the same compound, the Tumor-to-liver ratio ([2]; 4 h p.i.) was 6.9 ± 0.7, the “Blood, accumulated activity” value ([2]; 24 h p.i.) was 5.4 ± 0.9 % IA/g and the “Bone, accumulated activity” value ([2]; 24 h p.i.) was 0.91 ± 0.22 % IA/g. For the same compound, the “Intestines, accumulated activity” value ([2]; 24 h p.i.) was 0.80 ± 0.09 % IA/g, the “KB tumor, accumulated activity” value ([2]; 24 h p.i.) was 47 ± 4 % IA/g and the “Kidneys, accumulated activity” value ([2]; 24 h p.i.) was 24 ± 4 % IA/g. The “Liver, accumulated activity” value ([2]; 24 h p.i.) was 1.3 ± 0.2 % IA/g, the “Lung, accumulated activity” value ([2]; 24 h p.i.) was 3.2 ± 0.6 % IA/g and the “Muscle, accumulated activity” value ([2]; 24 h p.i.) was 0.82 ± 0.22 % IA/g. For the same compound, the “Salivary glands, accumulated activity” value ([2]; 24 h p.i.) was 5.2 ± 1.0 % IA/g, the “Spleen, accumulated activity” value ([2]; 24 h p.i.) was 1.7 ± 0.1 % IA/g and the “Stomach, accumulated activity” value ([2]; 24 h p.i.) was 0.80 ± 0.11 % IA/g. For the same compound, the Tumor-to-blood ratio ([2]; 24 h p.i.) was 8.8 ± 0.8, the Tumor-to-kidney ratio ([2]; 24 h p.i.) was 2.0 ± 0.4 and the Tumor-to-liver ratio ([2]; 24 h p.i.) was 35 ± 4.

In the case of `CN1c2c(nc(N)[nH]c2=O)NCC1CNc1ccc(C(=O)NC(CCC(=O)NC(CCCCNC(=O)CN2CCN(CC(=O)[O-])CCN(CC(=O)[O-])CCN(CC(=O)[O-])CC2)C(=O)NC(CCCCNC(=O)CCCc2ccc(I)cc2)C(=O)O)C(=O)O)cc1.[177Lu+3]` (stereo not drawn) [[^177Lu]Lu-6S-RedFol-1], the “logD Values” [1] is given as −3.7 ± 0.1 ^4, the “Blood, accumulated activity” value ([2]; 1 h p.i.) is given as 19 ± 2 % IA/g and the “Bone, accumulated activity” value ([2]; 1 h p.i.) is given as 2.0 ± 0.2 % IA/g. For the same compound, the “Intestines, accumulated activity” value ([2]; 1 h p.i.) was 1.8 ± 0.4 % IA/g, the “KB tumor, accumulated activity” value ([2]; 1 h p.i.) was 14 ± 3 % IA/g and the “Kidneys, accumulated activity” value ([2]; 1 h p.i.) was 18 ± 2 % IA/g. The “Liver, accumulated activity” value ([2]; 1 h p.i.) was 2.6 ± 0.1 % IA/g, the “Lung, accumulated activity” value ([2]; 1 h p.i.) was 8.5 ± 0.6 % IA/g and the “Muscle, accumulated activity” value ([2]; 1 h p.i.) was 1.6 ± 0.2 % IA/g. The “Salivary glands, accumulated activity” value ([2]; 1 h p.i.) was 4.0 ± 0.2 % IA/g, the “Spleen, accumulated activity” value ([2]; 1 h p.i.) was 2.0 ± 0.2 % IA/g and the “Stomach, accumulated activity” value ([2]; 1 h p.i.) was 1.5 ± 0.3 % IA/g. For the same compound, the Tumor-to-blood ratio ([2]; 1 h p.i.) was 0.73 ± 0.12, the Tumor-to-kidney ratio ([2]; 1 h p.i.) was 0.75 ± 0.09 and the Tumor-to-liver ratio ([2]; 1 h p.i.) was 5.3 ± 1.0. For the same compound, the “Blood, accumulated activity” value ([2]; 4 h p.i.) was 15 ± 2 % IA/g, the “Bone, accumulated activity” value ([2]; 4 h p.i.) was 1.7 ± 0.2 % IA/g and the “Intestines, accumulated activity” value ([2]; 4 h p.i.) was 1.9 ± 0.1 % IA/g. The “KB tumor, accumulated activity” value ([2]; 4 h p.i.) was 26 ± 1 % IA/g, the “Kidneys, accumulated activity” value ([2]; 4 h p.i.) was 33 ± 2 % IA/g and the “Liver, accumulated activity” value ([2]; 4 h p.i.) was 2.3 ± 0.2 % IA/g. The “Lung, accumulated activity” value ([2]; 4 h p.i.) was 6.7 ± 0.6 % IA/g, the “Muscle, accumulated activity” value ([2]; 4 h p.i.) was 1.3 ± 0.1 % IA/g and the “Salivary glands, accumulated activity” value ([2]; 4 h p.i.) was 3.5 ± 0.4 % IA/g. For the same compound, the “Spleen, accumulated activity” value ([2]; 4 h p.i.) was 1.9 ± 0.3 % IA/g, the “Stomach, accumulated activity” value ([2]; 4 h p.i.) was 1.2 ± 0.2 % IA/g and the Tumor-to-blood ratio ([2]; 4 h p.i.) was 1.7 ± 0.2. For the same compound, the Tumor-to-kidney ratio ([2]; 4 h p.i.) was 0.79 ± 0.07, the “Blood, accumulated activity” value ([2]; 24 h p.i.) was 3.8 ± 0.9 % IA/g and the “Bone, accumulated activity” value ([2]; 24 h p.i.) was 0.53 ± 0.08 % IA/g. The “Intestines, accumulated activity” value ([2]; 24 h p.i.) was 0.49 ± 0.04 % IA/g, the “KB tumor, accumulated activity” value ([2]; 24 h p.i.) was 46 ± 3 % IA/g and the “Kidneys, accumulated activity” value ([2]; 24 h p.i.) was 69 ± 7 % IA/g. For the same compound, the “Liver, accumulated activity” value ([2]; 24 h p.i.) was 0.81 ± 0.22 % IA/g, the “Lung, accumulated activity” value ([2]; 24 h p.i.) was 2.2 ± 0.4 % IA/g and the “Muscle, accumulated activity” value ([2]; 24 h p.i.) was 0.47 ± 0.15 % IA/g. The “Salivary glands, accumulated activity” value ([2]; 24 h p.i.) was 1.4 ± 0.2 % IA/g, the “Spleen, accumulated activity” value ([2]; 24 h p.i.) was 1.1 ± 0.2 % IA/g and the “Stomach, accumulated activity” value ([2]; 24 h p.i.) was 0.51 ± 0.14 % IA/g. For the same compound, the Tumor-to-blood ratio ([2]; 24 h p.i.) was 13 ± 3, the Tumor-to-kidney ratio ([2]; 24 h p.i.) was 0.67 ± 0.08 and the Tumor-to-liver ratio ([2]; 24 h p.i.) was 59 ± 13.

For `O=C(O)CN1CCN(CC(=O)O)CCN(CC(=O)NCCC(=O)N[C@@H](CCCCNC(=O)CCCc2ccc(I)cc2)C(=O)O)CCN(CC(=O)O)CC1.[177Lu]` [[^177Lu]Lu-DOTA-ALB-1], the logD value [3] is given as −3.15 ± 0.04.
